Reference: patent US11236046B2, “Substituted heterocyclic sulfonamide compounds useful as TRPA1 modulators” (Genentech, Inc., priority 2013, dated 2022)
pIC50: −log10 of the molar value.

biological target: human TRPA1 (Homo sapiens (Human), UniProt O75762); assay: FLIPR Tetra calcium influx assay, block of cinnamaldehyde-induced calcium influx in CHO cells expressing TRPA1 (human); assay type: cell-based; conditions: 20 min compound incubation, 75 uM cinnamaldehyde (~EC80), Hill coefficient fixed to 1.5, read-out: hTRPA1 AUC IC50
Sequence (O75762 whole entry): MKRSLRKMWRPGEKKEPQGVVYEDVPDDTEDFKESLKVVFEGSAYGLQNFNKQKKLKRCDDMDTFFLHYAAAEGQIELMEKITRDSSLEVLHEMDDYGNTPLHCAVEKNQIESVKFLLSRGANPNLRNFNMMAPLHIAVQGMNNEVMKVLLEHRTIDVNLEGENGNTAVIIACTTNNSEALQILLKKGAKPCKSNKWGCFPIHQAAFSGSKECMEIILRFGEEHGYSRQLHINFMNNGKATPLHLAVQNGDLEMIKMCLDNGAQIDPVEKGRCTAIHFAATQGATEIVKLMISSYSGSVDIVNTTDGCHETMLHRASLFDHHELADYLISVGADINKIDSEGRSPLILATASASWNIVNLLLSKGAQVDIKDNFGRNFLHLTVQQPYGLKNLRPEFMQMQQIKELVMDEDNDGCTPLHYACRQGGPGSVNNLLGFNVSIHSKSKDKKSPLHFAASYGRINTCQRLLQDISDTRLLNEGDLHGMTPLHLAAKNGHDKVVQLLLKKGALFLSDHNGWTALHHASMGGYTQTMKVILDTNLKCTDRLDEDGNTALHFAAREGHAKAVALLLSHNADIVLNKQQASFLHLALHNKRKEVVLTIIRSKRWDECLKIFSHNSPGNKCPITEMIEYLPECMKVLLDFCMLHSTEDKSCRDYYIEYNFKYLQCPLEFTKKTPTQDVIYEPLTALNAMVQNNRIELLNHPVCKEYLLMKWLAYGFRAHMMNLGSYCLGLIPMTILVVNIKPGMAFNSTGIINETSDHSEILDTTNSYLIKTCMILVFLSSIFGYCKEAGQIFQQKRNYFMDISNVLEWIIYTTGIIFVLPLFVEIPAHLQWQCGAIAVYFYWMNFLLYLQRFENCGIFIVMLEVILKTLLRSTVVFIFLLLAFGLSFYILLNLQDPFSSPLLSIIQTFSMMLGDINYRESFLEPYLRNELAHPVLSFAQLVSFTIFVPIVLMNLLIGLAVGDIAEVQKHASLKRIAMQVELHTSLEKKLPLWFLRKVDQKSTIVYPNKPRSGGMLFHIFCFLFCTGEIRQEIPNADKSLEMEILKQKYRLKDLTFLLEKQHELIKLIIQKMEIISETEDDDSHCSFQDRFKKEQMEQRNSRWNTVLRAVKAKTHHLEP
Summary of the method: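 CHO cells loaded with calcium dye, preincubated with compounds 20 min at room temperature in HBSS/20 mM HEPES pH 7.4 with 0.02% BSA. Channels activated by ~EC80 cinnamaldehyde (75 uM human, 45 uM rat); block of calcium influx read on FLIPR Tetra, IC50 fitted with fixed Hill coefficient.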

Row | Compound | pIC50
1 | COc1cnc(CNC(=O)[C@]2(C)C[C@@H](F)CN2S(=O)(=O)c2ccc(F)cc2)cc1-c1ccc(C(F)(F)F)nc1 [Example 109, (2S,4R)-4-fluoro-1-(4-fluorophenyl)sulfonyl-N-[[5-methoxy-4-[6-(trifluoromethyl)-3-pyridyl]-2-pyridyl]methyl]-2-methyl-pyrrolidine-2-carboxamide] | 6.79
2 | C[C@@]1(F)C[C@@H](C(=O)NCc2cc(-c3cnc(C(F)(F)F)nc3)ccc2F)N(S(=O)(=O)c2ccc(F)cc2)C1 [Example 187, (2S,4R)-4-fluoro-N-(2-fluoro-5-(2-(trifluoromethyl)pyrimidin-5-yl)benzyl)-1-((4-fluorophenyl)sulfonyl)-4-methylpyrrolidine-2-carboxamide] | 8.22
3 | O=C(NCc1cc(-c2ccc(C(F)(F)F)cc2)ccc1F)[C@@H]1C[C@@H](F)CN1S(=O)(=O)c1ccc(F)cc1 [Example 177, (2S,4R)-4-fluoro-N-((4-fluoro-4′-(trifluoromethyl)-[1,1′-biphenyl]-3-yl)methyl)-1-((4-fluorophenyl)sulfonyl)pyrrolidine-2-carboxamide] | 8.30
4 | O=C(NCc1cc(-c2ccc(C(F)(F)F)cn2)cc(F)n1)[C@@H]1C[C@@H](F)CN1S(=O)(=O)c1ccc(F)cc1 [Example 49, (2S,4R)-4-fluoro-N-([6-fluoro-4-[5-(trifluoromethyl)pyridin-2-yl]pyridin-2-yl]methyl)-1-[(4-fluorobenzene)sulfonyl]pyrrolidine-2-carboxamide] | 8.05
5 | COc1cc(-c2ccc(C(F)(F)F)nc2)cc(CNC(=O)[C@@H]2C[C@@H](F)CN2S(=O)(=O)c2ccc(F)cc2)n1 [Example 118, (2S,4R)-4-fluoro-1-[(4-fluorobenzene)sulfonyl]-N-([6-methoxy-4-[6-(trifluoromethyl)pyridin-3-yl]pyridin-2-yl]methyl)pyrrolidine-2-carboxamide] | 7.43
6 | O=C(NCc1cc(-c2ccc(C(F)(F)F)nn2)ccc1F)[C@@H]1C[C@@H](F)CN1S(=O)(=O)c1ccc(F)cc1 [Example 163, (2S,4R)-4-fluoro-N-(2-fluoro-5-(6-(trifluoromethyl)pyridazin-3-yl)benzyl)-1-((4-fluorophenyl)sulfonyl)pyrrolidine-2-carboxamide] | 7.37
7 | O=C(NCc1cc(-c2ccc(C(F)(F)F)c(F)c2)ncn1)[C@@H]1C[C@@H](F)CN1S(=O)(=O)c1ccc(F)cc1 [Example 114, (2S,4R)-4-fluoro-N-([6-[3-fluoro-4-(trifluoromethyl)phenyl]pyrimidin-4-yl]methyl)-1-[(4-fluorobenzene)sulfonyl]pyrrolidine-2-carboxamide] | 7.59
8 | O=C(NCc1cc(C23CCC(C(F)F)(CC2)CC3)ncn1)[C@@H]1C[C@@H](F)CN1S(=O)(=O)c1ccc(F)cc1 [Example 133, (2S,4R)—N-[[6-[4-(difluoromethyl)-1-bicyclo[2.2.2]octanyl]pyrimidin-4-yl]methyl]-4-fluoro-1-(4-fluorophenyl)sulfonyl-pyrrolidine-2-carboxamide] | 7.23
9 | O=C(NCc1cc(F)cc(-c2nc(C(F)(F)F)cs2)c1)[C@@H]1C[C@@H](F)CN1S(=O)(=O)c1ccc(F)cc1 [Example 175, (2S,4R)-4-fluoro-1-(4-fluorophenyl)sulfonyl-N-[[3-fluoro-5-[4-(trifluoromethyl)thiazol-2-yl]phenyl]methyl]pyrrolidine-2-carboxamide] | 7.07
10 | O=C(NCc1cc(N2CCC(C(F)(F)F)CC2)c(C(F)(F)F)cn1)[C@@H]1C[C@@H](F)CN1S(=O)(=O)c1ccc(F)cc1 [Example 130, (2S,4R)-4-fluoro-1-(4-fluorophenyl)sulfonyl-N-[[5-(trifluoromethyl)-4-[4-(trifluoromethyl)-1-piperidyl]-2-pyridyl]methyl]pyrrolidine-2-carboxamide] | 7.28
11 | N#Cc1cnc(-c2ccc(C(F)(F)F)nc2)cc1CNC(=O)[C@@H]1C[C@@H](F)CN1S(=O)(=O)c1ccc(F)cc1 [Example 79, (2S,4R)—N-([5-cyano-2-[6-(trifluoromethyl)pyridin-3-yl]pyridin-4-yl]methyl)-4-fluoro-1-[(4-fluorobenzene)sulfonyl]pyrrolidine-2-carboxamide] | 8.05
12 | (2S,4R)-4-fluoro-N-[[5-fluoro-4-[5-fluoro-6-(trifluoromethyl)-3-pyridyl]-2-pyridyl]methyl]-1-(4-fluorophenyl)sulfonyl-pyrrolidine-2-carboxamide [Example 65] | 7.40
13 | O=C(NCc1cc(-c2cnc(C(F)(F)F)nc2)ccn1)[C@@H]1[C@@H](F)CCN1S(=O)(=O)c1ccc(F)cc1 [Example 157, (2R,3S)-3-fluoro-1-(4-fluorophenyl)sulfonyl-N-[[4-[2-(trifluoromethyl)pyrimidin-5-yl]-2-pyridyl]methyl]pyrrolidine-2-carboxamide] | 6.99
14 | O=C(NCc1cc(-c2ccc(C(F)(F)F)nc2)nc(-c2ccc(C(F)(F)F)nc2)c1)[C@@H]1C[C@@H](F)CN1S(=O)(=O)c1ccc(F)cc1 [Example 83, (2S,4R)—N-[[2,6-bis[6-(trifluoromethyl)-3-pyridyl]-4-pyridyl]methyl]-4-fluoro-1-(4-fluorophenyl)sulfonyl-pyrrolidine-2-carboxamide] | 7.26
15 | COc1nn(-c2ccc(C(F)(F)F)cc2)cc1CNC(=O)[C@@H]1C[C@@H](F)CN1S(=O)(=O)c1cccc(F)c1 [Example 134, (2S,4R)-4-fluoro-1-[(3-fluorobenzene)sulfonyl]-N-([3-methoxy-1-[4-(trifluoromethyl)phenyl]-1H-pyrazol-4-yl]methyl)pyrrolidine-2-carboxamide] | 7.64
16 | C[C@H]1[C@H](F)C[C@@H](C(=O)NCc2ccnc(-c3cnc(C(F)(F)F)nc3)c2)N1S(=O)(=O)c1ccc(F)cc1 [Example 193, (2S,4R,5S)-4-fluoro-1-[(4-fluorobenzene)sulfonyl]-5-methyl-N-([2-[2-(trifluoromethyl)pyrimidin-5-yl]pyridin-4-yl]methyl)pyrrolidine-2-carboxamide] | 7.82
17 | O=C(NCc1cc(-c2ccc(C(F)(F)F)nc2)ncn1)[C@@H]1[C@@H](F)CCN1S(=O)(=O)c1ccc(F)cc1 [Example 136, (2R,3S)-3-fluoro-1-(4-fluorophenylsulfonyl)-N-((6-(6-(trifluoromethyl)pyridin-3-yl)pyrimidin-4-yl)methyl)pyrrolidine-2-carboxamide] | 7.68
18 | O=C(NCc1cc(-c2ccc(C(F)(F)F)nc2)ncn1)[C@@H]1C[C@]2(CN1S(=O)(=O)c1ccc(F)cc1)CC2(F)F (single isomer, unassigned) [Example 124] | 6.95
19 | N#Cc1cnc(-c2ccc(C(F)(F)F)cc2)cc1CNC(=O)[C@@H]1C[C@@H](F)CN1S(=O)(=O)c1ccc(F)cc1 [Example 78, (2S,4R)—N-([5-cyano-2-[4-(trifluoromethyl)phenyl]pyridin-4-yl]methyl)-4-fluoro-1-[(4-fluorobenzene)sulfonyl]pyrrolidine-2-carboxamide] | 8.15
20 | O=C(NCc1cc(-c2ccc(C(F)(F)F)cc2)ncn1)[C@@H]1C[C@H]2COC[C@H]2N1S(=O)(=O)c1ccc(F)cc1 (single isomer, unassigned) [Example 99] | 6.37
21 | N#Cc1cnc(CNC(=O)[C@@H]2C[C@@H](F)CN2S(=O)(=O)c2ccc(F)cc2)cc1-c1ccc(C(F)(F)F)cc1 [Example 70, (2S,4R)—N-((5-cyano-4-(4-(trifluoromethyl)phenyl)pyridin-2-yl)methyl)-4-fluoro-1-(4-fluorophenylsulfonyl)pyrrolidine-2-carboxamide] | 7.64
